Laboratory results: ChEMBL document CHEMBL1201862, “PubChem BioAssay data set” (2004)
Activity calls are given as the source filed them.

Columns and labels:
[1] = target: Serine/threonine-protein phosphatase PP1-alpha catalytic subunit (Homo sapiens, UniProt P62136); assay: inhibition of protein phosphatase 1 activity – biochemical, fluorescence, dose response (AID 2394)
[2] = target: T1, Serine/threonine-protein phosphatase (Homo sapiens, UniProt Q9BPW0); assay: inhibition of protein phosphatase 5 activity – biochemical, fluorescence, dose response (AID 2395)
T1 sequence (Q9BPW0 whole entry): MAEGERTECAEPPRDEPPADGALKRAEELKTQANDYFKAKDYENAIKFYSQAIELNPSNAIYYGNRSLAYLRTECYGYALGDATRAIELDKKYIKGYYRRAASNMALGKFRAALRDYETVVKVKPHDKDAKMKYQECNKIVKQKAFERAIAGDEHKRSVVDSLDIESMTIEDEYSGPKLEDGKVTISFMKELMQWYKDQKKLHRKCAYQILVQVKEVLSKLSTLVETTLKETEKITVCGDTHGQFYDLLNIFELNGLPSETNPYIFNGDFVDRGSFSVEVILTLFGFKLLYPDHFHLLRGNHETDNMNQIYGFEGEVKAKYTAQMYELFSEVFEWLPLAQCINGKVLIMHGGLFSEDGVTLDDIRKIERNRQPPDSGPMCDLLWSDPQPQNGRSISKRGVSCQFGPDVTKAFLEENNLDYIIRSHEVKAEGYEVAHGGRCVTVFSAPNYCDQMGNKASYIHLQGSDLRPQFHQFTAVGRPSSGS

[3] = target: T2, Replicative DNA helicase DnaB (Mycobacterium tuberculosis, UniProt P9WMR3); assay: DnaB intein splicing inhibitors, dose response, biochemical, cell-free fluorescence (AID 449749); type: functional
T2 sequence (P9WMR3 whole entry): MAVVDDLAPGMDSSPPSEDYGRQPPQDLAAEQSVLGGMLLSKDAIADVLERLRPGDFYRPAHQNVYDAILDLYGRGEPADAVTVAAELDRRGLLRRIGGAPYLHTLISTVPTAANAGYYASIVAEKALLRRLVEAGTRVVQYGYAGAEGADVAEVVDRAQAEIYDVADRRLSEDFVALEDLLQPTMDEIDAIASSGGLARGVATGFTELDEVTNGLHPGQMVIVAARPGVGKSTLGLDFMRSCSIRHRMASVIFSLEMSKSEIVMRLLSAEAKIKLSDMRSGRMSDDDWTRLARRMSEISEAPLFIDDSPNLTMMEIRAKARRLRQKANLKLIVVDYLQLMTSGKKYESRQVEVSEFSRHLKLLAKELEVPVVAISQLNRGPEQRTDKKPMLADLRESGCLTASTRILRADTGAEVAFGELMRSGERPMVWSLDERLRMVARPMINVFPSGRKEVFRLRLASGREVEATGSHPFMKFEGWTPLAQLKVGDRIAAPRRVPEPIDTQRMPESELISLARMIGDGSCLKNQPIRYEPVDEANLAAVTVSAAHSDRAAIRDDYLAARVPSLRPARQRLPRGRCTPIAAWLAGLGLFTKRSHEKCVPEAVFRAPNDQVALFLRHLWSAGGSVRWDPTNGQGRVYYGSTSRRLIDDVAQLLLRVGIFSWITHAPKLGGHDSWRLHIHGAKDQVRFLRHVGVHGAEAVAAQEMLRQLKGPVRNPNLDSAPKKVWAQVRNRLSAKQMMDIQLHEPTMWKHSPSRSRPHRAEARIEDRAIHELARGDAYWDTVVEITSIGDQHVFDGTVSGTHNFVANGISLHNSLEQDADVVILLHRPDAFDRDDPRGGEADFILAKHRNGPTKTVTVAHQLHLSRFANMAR

[4] = target: T3, High affinity choline transporter 1 (Homo sapiens, UniProt Q9GZV3); assay: human choline transporter blockers, potency – cell-based, 5-point CRC, membrane potential dye, dose response (AID 504840); type: functional
T3 sequence (Q9GZV3 whole entry): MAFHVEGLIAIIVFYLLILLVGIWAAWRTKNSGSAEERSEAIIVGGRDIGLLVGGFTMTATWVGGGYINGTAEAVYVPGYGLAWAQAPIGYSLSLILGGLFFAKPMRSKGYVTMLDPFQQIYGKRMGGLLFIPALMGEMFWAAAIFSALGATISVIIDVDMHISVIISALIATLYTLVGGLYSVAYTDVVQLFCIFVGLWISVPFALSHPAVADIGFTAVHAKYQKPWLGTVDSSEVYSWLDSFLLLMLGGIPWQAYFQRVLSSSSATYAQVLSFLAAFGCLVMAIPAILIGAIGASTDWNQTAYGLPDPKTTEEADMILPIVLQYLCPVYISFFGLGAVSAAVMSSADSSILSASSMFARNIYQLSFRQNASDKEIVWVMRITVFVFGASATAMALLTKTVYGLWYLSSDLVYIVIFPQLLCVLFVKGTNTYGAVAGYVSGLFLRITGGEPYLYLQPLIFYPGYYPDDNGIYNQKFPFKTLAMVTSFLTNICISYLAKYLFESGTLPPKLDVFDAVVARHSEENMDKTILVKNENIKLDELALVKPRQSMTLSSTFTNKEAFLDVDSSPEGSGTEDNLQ

Protein RecA = target: T4, Protein RecA (Mycobacterium tuberculosis, UniProt P9WHJ3); assay: Fluorescence Cell-Free Homogeneous Dose Retest to Identify Inhibitors of RecA-Intein Splicing Activity. [Related pubchem assays (depositor defined):AID2097, AID2223, AID489010, AID492950]; type: functional
T4 sequence (P9WHJ3 whole entry): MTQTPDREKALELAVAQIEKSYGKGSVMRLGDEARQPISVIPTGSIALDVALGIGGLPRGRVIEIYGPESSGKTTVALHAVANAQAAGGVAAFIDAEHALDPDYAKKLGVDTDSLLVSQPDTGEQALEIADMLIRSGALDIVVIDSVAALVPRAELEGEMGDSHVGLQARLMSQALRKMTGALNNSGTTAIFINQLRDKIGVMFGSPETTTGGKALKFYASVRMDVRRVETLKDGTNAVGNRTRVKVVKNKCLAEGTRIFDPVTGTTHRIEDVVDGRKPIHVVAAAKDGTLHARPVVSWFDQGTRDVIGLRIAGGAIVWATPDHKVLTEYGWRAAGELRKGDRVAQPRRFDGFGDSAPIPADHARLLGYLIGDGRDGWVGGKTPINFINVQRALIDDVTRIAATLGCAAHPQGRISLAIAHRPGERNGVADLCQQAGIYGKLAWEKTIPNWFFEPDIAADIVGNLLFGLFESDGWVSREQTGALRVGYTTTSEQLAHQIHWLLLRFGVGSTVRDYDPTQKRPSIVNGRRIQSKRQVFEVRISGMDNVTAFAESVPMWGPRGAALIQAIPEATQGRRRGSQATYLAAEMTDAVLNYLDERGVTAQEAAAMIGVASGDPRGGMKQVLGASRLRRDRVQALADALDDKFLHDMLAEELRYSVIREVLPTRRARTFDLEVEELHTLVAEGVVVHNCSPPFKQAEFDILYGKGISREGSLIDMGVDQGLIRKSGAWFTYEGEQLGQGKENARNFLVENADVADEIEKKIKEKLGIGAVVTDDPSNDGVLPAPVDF

[5] = target: T3, High affinity choline transporter 1; assay: human choline transporter blockers, potency – cell-based, 10-point CRC, membrane potential dye, dose response (AID 588401); type: functional;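 further: membrane potential dye fluorescence of choline-evoked depolarization via CHT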
Genome polyprotein = Genome polyprotein (dengue virus type 2, UniProt P29990); assay: flavivirus cap methylation enzyme inhibition – biochemical, confirmation dose response, primary screen (AID 588689); type: functional
Sequence of Genome polyprotein (P29990 2492-3391 limits assumed): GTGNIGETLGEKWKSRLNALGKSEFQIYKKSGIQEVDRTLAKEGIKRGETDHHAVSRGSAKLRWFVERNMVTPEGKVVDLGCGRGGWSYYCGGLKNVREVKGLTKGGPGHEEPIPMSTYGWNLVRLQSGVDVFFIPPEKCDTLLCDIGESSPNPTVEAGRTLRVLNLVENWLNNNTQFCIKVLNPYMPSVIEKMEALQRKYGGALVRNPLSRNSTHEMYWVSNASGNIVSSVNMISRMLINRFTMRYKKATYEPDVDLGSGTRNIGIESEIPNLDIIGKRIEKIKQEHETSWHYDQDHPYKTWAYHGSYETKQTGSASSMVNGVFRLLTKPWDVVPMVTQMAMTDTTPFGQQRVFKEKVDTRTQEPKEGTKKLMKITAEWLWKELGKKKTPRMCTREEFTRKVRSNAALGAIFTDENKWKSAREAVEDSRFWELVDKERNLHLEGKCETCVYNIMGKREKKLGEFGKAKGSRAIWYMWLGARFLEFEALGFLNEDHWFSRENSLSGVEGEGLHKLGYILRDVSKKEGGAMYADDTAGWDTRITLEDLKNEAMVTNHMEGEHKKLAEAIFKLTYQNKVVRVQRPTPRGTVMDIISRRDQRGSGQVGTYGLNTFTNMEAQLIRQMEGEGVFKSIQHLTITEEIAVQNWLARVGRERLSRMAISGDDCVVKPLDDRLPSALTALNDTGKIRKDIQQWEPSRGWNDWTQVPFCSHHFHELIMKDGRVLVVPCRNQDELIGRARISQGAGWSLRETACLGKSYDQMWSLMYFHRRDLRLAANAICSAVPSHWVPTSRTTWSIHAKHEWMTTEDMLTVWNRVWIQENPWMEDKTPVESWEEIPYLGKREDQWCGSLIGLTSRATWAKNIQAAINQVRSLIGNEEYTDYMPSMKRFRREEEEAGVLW

Fatty acid synthase [6] = target: T5, Fatty acid synthase (Homo sapiens, UniProt P49327); assay: inhibition of human FAS-TE enzyme activity – biochemical, endpoint fluorescence intensity, uHTS hits, dose response (AID 624327); type: functional;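 further: fluorescence from hydrolysis of an O-methyl fluorescein acyl ester substrate by the enzyme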
T5 sequence (P49327 whole entry): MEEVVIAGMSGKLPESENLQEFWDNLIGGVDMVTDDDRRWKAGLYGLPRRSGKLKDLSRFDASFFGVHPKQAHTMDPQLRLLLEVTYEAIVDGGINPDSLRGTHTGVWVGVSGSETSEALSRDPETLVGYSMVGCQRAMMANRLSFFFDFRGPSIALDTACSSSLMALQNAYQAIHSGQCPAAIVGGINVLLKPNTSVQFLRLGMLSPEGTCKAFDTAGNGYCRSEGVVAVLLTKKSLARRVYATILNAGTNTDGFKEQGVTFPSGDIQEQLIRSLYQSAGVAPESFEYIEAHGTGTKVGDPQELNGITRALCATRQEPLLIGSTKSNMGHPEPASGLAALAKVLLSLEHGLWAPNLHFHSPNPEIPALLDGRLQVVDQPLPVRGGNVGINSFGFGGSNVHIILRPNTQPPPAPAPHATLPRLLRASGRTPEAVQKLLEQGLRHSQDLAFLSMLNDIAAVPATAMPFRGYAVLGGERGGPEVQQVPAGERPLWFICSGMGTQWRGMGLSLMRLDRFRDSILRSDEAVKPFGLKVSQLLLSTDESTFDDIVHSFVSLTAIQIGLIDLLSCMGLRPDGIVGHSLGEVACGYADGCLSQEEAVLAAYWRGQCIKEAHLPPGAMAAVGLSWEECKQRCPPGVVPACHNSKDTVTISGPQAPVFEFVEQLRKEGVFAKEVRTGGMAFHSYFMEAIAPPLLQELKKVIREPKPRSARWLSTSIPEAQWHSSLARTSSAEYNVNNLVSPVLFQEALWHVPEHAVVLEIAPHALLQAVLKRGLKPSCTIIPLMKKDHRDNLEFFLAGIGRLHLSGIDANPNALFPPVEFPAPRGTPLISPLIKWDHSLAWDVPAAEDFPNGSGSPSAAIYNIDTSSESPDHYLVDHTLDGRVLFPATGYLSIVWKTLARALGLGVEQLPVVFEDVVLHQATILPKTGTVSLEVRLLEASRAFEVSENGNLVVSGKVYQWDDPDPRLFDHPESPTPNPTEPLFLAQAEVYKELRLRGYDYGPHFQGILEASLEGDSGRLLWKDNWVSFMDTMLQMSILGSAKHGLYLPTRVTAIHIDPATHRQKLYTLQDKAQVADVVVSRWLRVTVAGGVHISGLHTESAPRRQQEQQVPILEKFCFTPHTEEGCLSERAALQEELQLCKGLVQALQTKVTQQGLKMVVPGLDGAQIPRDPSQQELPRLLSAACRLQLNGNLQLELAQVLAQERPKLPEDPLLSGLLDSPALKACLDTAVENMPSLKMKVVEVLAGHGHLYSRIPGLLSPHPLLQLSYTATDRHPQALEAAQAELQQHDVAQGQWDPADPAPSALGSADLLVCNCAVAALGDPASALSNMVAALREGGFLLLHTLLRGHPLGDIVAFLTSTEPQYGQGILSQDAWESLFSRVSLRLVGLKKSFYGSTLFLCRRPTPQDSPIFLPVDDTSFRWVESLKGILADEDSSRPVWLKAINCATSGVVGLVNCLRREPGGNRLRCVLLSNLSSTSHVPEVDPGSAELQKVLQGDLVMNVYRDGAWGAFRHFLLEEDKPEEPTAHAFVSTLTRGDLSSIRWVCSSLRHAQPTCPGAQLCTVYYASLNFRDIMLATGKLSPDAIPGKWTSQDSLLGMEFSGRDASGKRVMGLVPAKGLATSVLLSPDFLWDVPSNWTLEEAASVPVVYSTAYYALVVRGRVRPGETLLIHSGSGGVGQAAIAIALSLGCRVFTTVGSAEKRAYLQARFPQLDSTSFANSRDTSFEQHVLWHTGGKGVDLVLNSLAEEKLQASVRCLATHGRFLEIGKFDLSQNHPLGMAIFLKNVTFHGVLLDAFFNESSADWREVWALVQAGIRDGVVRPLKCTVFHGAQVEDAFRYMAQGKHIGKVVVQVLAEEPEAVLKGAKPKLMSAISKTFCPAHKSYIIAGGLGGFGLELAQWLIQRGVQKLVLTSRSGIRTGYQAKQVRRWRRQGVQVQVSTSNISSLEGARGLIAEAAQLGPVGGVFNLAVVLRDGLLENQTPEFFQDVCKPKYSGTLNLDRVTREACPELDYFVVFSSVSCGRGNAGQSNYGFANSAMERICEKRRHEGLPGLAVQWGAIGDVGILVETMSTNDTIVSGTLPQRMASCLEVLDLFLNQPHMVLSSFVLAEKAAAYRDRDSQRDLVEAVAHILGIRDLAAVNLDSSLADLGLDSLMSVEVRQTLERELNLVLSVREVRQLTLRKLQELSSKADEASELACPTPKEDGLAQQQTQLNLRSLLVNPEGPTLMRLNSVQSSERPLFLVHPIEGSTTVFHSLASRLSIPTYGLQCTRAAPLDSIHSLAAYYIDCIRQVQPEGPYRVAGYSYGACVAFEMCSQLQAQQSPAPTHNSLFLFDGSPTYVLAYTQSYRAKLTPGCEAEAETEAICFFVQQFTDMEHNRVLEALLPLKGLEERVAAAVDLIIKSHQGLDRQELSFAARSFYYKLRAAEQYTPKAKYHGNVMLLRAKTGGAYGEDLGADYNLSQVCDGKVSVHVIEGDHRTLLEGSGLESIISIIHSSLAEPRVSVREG

Fatty acid synthase [7] = target: T5, Fatty acid synthase; assay: inhibition of human FAS-TE enzyme activity – biochemical, kinetic fluorescence intensity, dose response (AID 624326); type: functional;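 further: rate of fluorescence rise from hydrolysis of a fluorogenic O-methyl fluorescein ester substrate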

Sequence of Serine/threonine-protein phosphatase PP1-alpha catalytic subunit (P62136 whole entry): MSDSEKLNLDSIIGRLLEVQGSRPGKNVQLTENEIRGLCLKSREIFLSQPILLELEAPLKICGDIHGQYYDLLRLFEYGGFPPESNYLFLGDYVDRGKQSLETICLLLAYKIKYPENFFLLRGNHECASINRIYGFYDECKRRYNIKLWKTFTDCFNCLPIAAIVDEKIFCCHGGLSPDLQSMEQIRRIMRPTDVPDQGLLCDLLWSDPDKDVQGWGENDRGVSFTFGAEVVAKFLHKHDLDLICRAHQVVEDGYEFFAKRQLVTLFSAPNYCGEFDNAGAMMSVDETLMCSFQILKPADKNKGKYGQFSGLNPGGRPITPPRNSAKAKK

SMILES: Cc1[nH]n(-c2ccccc2)c(=O)c1C(c1ccc([N+](=O)[O-])cc1)c1c(C)[nH]n(-c2ccccc2)c1=O
- IC50 [1]: 29.9 µM (not active)
- IC50 [2]: 9.57 µM (active)
- AC50 [3]: 1.24 µM (active)
- IC50 [4]: 10.3 µM (active)
- EC50 (Protein RecA): 0.39 µM (active)
- IC50 [5]: 2.82 µM (active)
- IC50 (Genome polyprotein): 33.2 µM (active)
- IC50 (Fatty acid synthase [6]): 3.19 µM (active)
- IC50 (Fatty acid synthase [7]): 5.6 µM (active)
